The conditions of series [1]: cited from earlier work; for Solubility in water: cyclodextrins, water at 25° C.
The nature of series [2]: Solubility of compound of formula II in cyclodextrin aqueous solutions (Test Example 7). The series is classed as physicochemical. To be noted: for solubility at 24 h: 25 °C, aqueous with cosolvent or surfactant or cyclodextrin, thermodynamic from solid. How it is done: A complex containing the compound of formula II and the cyclodextrin can be obtained by grinding a block prepared by freeze-drying a solution which is obtained by dissolving the both into water. In order to examine the minimum content (formulation amount) of cyclodextrin required to obtain the complex, solubility of the compound of formula II in cyclodextrin aqueous solutions which have different concentrations of and different types of cyclodextrin was measured. That is, cyclodextrin aqueous solutions of various concentrations were prepared by dissolving α-cyclodextrin, β-cyclodextrin, γ-cyclodextrin or hydroxypropyl-β-cyclodextrin into water. After each solution was poured into a test tube, the compound of formula II was added excessively. The test tube was shaken in a water bath at 25° C. for 24 hours, and a concentration of the dissolved compound of formula II was quantified with high-performance liquid chromatography (Equipment: LC10VP series manufactured by SHIMADZU CORPORATION, Column: Develosil ODS-HG-5 manufactured by Nomura Chemical Co., Ltd., Inner diameter: 4.6 mm, Length: 15 cm, Column temperature: 40° C., Mobile phase: mixed solution of water/acetonitrile/phosphoric acid (550:450:1), Flow rate: 1 mL/min, Detection wavelength: 200 nm). With this, solubility of the compound of formula II and molar ratio of the compound of formula II and each type of cyclodextrin were calculated.
Note that, for calculation of the molar ratios, molecular weights of the compound of formula II, α-cyclodextrin, β-cyclodextrin, γ-cyclodextrin and hydroxypropyl-β-cyclodextrin were set to 420.99, 972.84, 1134.98, 1297.12 and 1506.69, respectively.

The nature of another series: Solubility in water. To be noted: water at 25° C. The series is classed as physicochemical.

Like-named read-outs stand apart in the source and are kept apart here. Bounds are passed on as bounds.

These results are taken from patent US20120022164A1, “EXTERNAL PREPARATION COMPRISING PROSTAGLANDIN DERIVATIVE” (TAISHO PHARMACEUTICAL CO., LTD., priority 2006, published 2012).

For `OC[C@H]1O[C@@H]2O[C@H]3[C@H](O)[C@@H](O)[C@@H](O[C@H]4[C@H](O)[C@@H](O)[C@@H](O[C@H]5[C@H](O)[C@@H](O)[C@@H](O[C@H]6[C@H](O)[C@@H](O)[C@@H](O[C@H]7[C@H](O)[C@@H](O)[C@@H](O[C@H]8[C@H](O)[C@@H](O)[C@@H](O[C@H]1[C@H](O)[C@H]2O)O[C@@H]8CO)O[C@@H]7CO)O[C@@H]6CO)O[C@@H]5CO)O[C@@H]4CO)O[C@@H]3CO` [β-cyclodextrin], the Solubility in water entry in series [1] was “approximately 2%”.

For `OC[C@H]1O[C@@H]2O[C@H]3[C@H](O)[C@@H](O)[C@@H](O[C@H]4[C@H](O)[C@@H](O)[C@@H](O[C@H]5[C@H](O)[C@@H](O)[C@@H](O[C@H]6[C@H](O)[C@@H](O)[C@@H](O[C@H]7[C@H](O)[C@@H](O)[C@@H](O[C@H]1[C@H](O)[C@H]2O)O[C@@H]7CO)O[C@@H]6CO)O[C@@H]5CO)O[C@@H]4CO)O[C@@H]3CO` [α-cyclodextrin], in series [1], the Solubility in water entry is “approximately 14%”. Also, the “Solubility of α-cyclodextrin in water” value in series [1] (water) is “approximately 14 % by mass”.

On to `O=C(O)CSCCCC[C@@H]1[C@@H](C#C[C@@H](O)C2CCCCC2)[C@H](O)C[C@H]1Cl` [compound of formula II], for which the “Solubility of compound of formula II (mg/mL)” value is > 0.10* mg/mL in series [2] (hydroxypropyl-β-cyclodextrin 0.25% by mass in water, 25° C., * completely dissolved, actual solubility assumed much higher); > 2.0* mg/mL in series [2] (hydroxypropyl-β-cyclodextrin 5% by mass in water, 25° C., * completely dissolved, actual solubility assumed much higher); > 3.0* mg/mL in series [2] (hydroxypropyl-β-cyclodextrin 10% by mass in water, 25° C., * completely dissolved, actual solubility assumed much higher). For the same compound, the solubility (in general, the concentration that dissolves in the medium under given conditions) at 24 h in series [2] (α-cyclodextrin aqueous solution, α-cyclodextrin 1% by mass in water, 25° C., 24 hours, read-out: Solubility of compound of formula II) is 110 µg/mL; in series [2] (α-cyclodextrin aqueous solution, α-cyclodextrin 2% by mass in water, 25° C., 24 hours, read-out: Solubility of compound of formula II), 170 µg/mL; in series [2] (α-cyclodextrin aqueous solution, α-cyclodextrin 5% by mass in water, 25° C., 24 hours, read-out: Solubility of compound of formula II), 500 µg/mL; in series [2] (α-cyclodextrin aqueous solution, α-cyclodextrin 10% by mass in water, 25° C., 24 hours, read-out: Solubility of compound of formula II), 1220 µg/mL; in series [2] (α-cyclodextrin aqueous solution, α-cyclodextrin 12% by mass in aqueous solution, 25° C. (FIG. 1), read-out: Solubility of the compound of formula II), 1520 µg/mL; in series [2] (β-cyclodextrin aqueous solution, β-cyclodextrin 1% by mass in water, 25° C., 24 hours, read-out: Solubility of compound of formula II) it was under 100 µg/mL. Besides, the solubility at 24 h was over 200 µg/mL in series [2] (β-cyclodextrin aqueous solution, β-cyclodextrin 2% by mass in water, 25° C., * completely dissolved, actual solubility assumed much higher, read-out: Solubility of compound of formula II); over 50 µg/mL in series [2] (γ-cyclodextrin aqueous solution, γ-cyclodextrin 0.1% by mass in water, 25° C., * completely dissolved, actual solubility assumed much higher, read-out: Solubility of compound of formula II); 170 µg/mL in series [2] (γ-cyclodextrin aqueous solution, γ-cyclodextrin 1% by mass in water, 25° C., 24 hours, read-out: Solubility of compound of formula II); 120 µg/mL in series [2] (γ-cyclodextrin aqueous solution, γ-cyclodextrin 5% by mass in water, 25° C., 24 hours, read-out: Solubility of compound of formula II). Also, the “Compound of formula II: cyclodextrin (molar ratio)” value in series [2] (γ-cyclodextrin 5% by mass) amounted to 0.1396. This compound also came in with a solubility in the series “Solubility in water” of about 60 µg/mL.

Consider hydroxypropyl-β-cyclodextrin, for which the Solubility in water result in series [1] was “approximately 22%”.
